From ChEMBL document CHEMBL1909046, “DrugMatrix in vitro pharmacology data”

Tests used:
[1] = target: T1, Muscarinic acetylcholine receptor M2 (Homo sapiens, UniProt P08172); type: cell membranes, CHO-K1, Membrane; conditions: cho-k1; further: in other assays of this panel Not Active means under 50% inhibition at 10 µM
T1 sequence (P08172 whole entry): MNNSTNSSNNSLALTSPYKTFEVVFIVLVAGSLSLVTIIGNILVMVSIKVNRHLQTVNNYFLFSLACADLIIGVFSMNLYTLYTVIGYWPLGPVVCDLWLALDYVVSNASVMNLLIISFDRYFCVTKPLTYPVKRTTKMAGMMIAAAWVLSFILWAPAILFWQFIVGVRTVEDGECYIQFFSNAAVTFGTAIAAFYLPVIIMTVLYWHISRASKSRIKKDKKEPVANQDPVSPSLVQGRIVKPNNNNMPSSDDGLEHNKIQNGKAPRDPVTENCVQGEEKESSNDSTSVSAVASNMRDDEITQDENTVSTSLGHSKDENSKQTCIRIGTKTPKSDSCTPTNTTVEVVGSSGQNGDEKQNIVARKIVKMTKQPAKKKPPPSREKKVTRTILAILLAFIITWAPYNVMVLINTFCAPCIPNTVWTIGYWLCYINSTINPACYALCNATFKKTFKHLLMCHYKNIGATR

B2 bradykinin receptor = target: T2, B2 bradykinin receptor (Homo sapiens, UniProt P30411); type: cell membranes, Membrane; conditions: chem-1; further: in other assays of this panel Not Active means under 50% inhibition at 10 µM
T2 sequence (P30411 whole entry): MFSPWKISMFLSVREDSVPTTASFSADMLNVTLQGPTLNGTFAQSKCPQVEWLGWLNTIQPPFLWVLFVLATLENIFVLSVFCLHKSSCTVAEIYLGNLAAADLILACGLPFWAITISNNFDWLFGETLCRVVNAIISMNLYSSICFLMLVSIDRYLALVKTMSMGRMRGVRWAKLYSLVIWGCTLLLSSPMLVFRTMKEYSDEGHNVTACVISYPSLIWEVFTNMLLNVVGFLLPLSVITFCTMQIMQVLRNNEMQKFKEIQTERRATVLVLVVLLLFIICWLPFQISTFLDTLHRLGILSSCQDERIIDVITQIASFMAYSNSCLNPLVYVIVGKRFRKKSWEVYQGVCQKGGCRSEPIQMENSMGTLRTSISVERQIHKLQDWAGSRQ

[2] = target: Delta-type opioid receptor (Homo sapiens, UniProt P41143); type: cell membranes, HEK293, Membrane; conditions: hek293; further: in other assays of this panel Not Active means under 50% inhibition at 10 µM
[3] = target: T3, Muscarinic acetylcholine receptor M5 (Homo sapiens, UniProt P08912); type: cell membranes, CHO-K1, Membrane; conditions: cho-k1; further: in other assays of this panel Not Active means under 50% inhibition at 10 µM
T3 sequence (P08912 whole entry): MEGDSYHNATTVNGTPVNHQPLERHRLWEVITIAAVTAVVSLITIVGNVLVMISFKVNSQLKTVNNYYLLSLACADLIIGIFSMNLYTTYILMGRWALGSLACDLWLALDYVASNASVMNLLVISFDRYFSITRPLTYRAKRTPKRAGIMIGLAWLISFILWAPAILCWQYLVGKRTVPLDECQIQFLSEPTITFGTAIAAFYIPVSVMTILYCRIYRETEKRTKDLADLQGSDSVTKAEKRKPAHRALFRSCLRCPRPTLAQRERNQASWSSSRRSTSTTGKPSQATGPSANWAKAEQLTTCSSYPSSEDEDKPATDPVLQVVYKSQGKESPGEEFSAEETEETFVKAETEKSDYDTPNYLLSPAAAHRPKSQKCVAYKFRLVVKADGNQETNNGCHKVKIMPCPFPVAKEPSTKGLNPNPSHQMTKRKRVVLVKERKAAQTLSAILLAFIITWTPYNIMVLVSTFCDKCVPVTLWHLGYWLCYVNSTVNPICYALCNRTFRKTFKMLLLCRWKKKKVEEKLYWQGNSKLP

[4] = target: T4, Neuropeptide Y receptor type 1 (Homo sapiens, UniProt P25929); type: cell membranes, Membrane; conditions: sk-n-mc; further: in other assays of this panel Not Active means under 50% inhibition at 10 µM
T4 sequence (P25929 whole entry): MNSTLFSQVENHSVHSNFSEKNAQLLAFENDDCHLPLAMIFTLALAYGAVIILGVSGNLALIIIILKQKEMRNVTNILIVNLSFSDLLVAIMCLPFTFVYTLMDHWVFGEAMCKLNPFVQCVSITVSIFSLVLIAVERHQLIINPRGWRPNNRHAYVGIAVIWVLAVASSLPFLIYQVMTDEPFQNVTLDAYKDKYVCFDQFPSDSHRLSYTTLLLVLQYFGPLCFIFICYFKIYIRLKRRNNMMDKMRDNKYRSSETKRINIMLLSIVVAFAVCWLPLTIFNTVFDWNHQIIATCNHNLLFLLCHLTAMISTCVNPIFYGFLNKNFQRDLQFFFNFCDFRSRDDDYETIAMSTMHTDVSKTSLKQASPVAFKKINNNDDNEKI

[5] = target: Mitogen-activated protein kinase 3 (Homo sapiens, UniProt P27361); assay: DRUGMATRIX: Protein Serine/Threonine Kinase, ERK1 enzyme inhibition (substrate: Myelin Basic Protein); parameters: species or system Escherichia coli; conditions: Not Active = under 50% inhibition at 10 µM
Cytochrome P450 2D6 = Cytochrome P450 2D6 (Homo sapiens, UniProt P10635); conditions: bti-tn-5b1-4; further: in other assays of this panel Not Active means under 50% inhibition at 10 µM
[6] = DRUGMATRIX: GABAA, Muscimol, Central radioligand binding (ligand: [3H] Muscimol); type: cell membranes, Rattus norvegicus, Wistar, Brain, Membrane; conditions: Not Active = under 50% inhibition at 10 µM
[7] = target: Sodium-dependent noradrenaline transporter (Homo sapiens, UniProt P23975); assay: DRUGMATRIX: Norepinephrine Transporter radioligand binding (ligand: [125I] RTI-55); type: cell membranes, MDCK, Membrane; conditions: mdck; Not Active = under 50% inhibition at 10 µM
Adenosine receptor A3 = target: T5, Adenosine receptor A3 (Homo sapiens, UniProt P0DMS8); type: cell membranes, CHO-K1, Membrane; conditions: cho-k1
T5 sequence (P0DMS8 whole entry): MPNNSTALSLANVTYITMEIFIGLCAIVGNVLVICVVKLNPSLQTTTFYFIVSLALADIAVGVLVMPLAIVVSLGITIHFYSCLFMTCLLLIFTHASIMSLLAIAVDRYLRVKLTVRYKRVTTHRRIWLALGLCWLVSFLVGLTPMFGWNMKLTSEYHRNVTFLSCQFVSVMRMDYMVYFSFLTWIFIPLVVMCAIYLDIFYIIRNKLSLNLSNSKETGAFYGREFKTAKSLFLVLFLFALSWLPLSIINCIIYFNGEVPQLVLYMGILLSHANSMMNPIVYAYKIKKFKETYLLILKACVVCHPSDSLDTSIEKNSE

Nitric oxide synthase 1 = Nitric oxide synthase 1 (Rattus norvegicus, UniProt P29476); type: tissue-based, Cerebellum; further: in other assays of this panel Not Active means under 50% inhibition at 10 µM
Chain of Nitric oxide synthase 1 (P29476 whole entry): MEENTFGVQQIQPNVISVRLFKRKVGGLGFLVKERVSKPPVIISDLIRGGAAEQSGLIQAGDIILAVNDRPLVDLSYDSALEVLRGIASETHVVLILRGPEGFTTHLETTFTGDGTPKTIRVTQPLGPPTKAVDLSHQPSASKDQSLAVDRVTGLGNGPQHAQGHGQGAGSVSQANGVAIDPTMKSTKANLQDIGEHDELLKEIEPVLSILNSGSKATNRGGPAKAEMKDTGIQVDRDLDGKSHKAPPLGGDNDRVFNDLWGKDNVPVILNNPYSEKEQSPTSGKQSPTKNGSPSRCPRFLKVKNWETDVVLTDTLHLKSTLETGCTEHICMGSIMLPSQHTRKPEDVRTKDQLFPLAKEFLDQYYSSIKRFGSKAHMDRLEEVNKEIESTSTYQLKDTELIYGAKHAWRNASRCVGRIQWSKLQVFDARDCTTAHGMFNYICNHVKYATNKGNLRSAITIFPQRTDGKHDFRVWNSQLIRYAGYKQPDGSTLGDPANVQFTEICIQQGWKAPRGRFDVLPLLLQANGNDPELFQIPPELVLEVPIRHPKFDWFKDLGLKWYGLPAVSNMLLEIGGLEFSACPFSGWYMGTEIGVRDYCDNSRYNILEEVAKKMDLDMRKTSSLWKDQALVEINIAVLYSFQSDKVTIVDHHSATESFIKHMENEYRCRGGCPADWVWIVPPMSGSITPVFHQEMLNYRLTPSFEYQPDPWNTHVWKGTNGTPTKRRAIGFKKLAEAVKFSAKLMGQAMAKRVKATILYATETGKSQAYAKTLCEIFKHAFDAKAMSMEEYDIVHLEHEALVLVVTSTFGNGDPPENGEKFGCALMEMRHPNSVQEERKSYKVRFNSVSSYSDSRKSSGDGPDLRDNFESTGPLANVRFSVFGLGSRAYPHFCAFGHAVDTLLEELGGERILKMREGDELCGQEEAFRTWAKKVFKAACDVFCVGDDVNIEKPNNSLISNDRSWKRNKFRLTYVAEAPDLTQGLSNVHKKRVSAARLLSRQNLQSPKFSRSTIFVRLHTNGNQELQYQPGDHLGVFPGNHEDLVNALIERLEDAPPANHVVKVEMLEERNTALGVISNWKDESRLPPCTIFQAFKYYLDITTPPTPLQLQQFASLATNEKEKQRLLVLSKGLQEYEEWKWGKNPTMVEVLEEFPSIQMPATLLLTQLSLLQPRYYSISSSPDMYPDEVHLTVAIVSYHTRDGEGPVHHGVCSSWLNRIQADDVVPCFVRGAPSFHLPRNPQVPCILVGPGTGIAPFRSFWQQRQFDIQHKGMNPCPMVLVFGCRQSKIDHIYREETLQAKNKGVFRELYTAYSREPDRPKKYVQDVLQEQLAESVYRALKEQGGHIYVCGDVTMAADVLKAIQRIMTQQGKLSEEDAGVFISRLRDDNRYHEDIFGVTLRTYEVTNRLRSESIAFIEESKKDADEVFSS

Chain of Mitogen-activated protein kinase 3 (P27361 whole entry): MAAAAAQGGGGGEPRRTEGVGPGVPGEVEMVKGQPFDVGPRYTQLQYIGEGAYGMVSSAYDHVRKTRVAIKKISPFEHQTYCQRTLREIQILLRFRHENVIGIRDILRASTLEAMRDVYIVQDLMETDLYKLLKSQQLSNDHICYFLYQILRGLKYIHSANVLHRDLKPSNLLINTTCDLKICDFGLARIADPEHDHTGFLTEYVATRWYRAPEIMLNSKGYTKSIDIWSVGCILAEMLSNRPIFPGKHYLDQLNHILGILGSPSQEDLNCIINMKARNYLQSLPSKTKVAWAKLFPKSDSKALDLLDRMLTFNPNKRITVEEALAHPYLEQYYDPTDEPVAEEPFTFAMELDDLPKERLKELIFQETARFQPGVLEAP
Chain of Cytochrome P450 2D6 (P10635 whole entry): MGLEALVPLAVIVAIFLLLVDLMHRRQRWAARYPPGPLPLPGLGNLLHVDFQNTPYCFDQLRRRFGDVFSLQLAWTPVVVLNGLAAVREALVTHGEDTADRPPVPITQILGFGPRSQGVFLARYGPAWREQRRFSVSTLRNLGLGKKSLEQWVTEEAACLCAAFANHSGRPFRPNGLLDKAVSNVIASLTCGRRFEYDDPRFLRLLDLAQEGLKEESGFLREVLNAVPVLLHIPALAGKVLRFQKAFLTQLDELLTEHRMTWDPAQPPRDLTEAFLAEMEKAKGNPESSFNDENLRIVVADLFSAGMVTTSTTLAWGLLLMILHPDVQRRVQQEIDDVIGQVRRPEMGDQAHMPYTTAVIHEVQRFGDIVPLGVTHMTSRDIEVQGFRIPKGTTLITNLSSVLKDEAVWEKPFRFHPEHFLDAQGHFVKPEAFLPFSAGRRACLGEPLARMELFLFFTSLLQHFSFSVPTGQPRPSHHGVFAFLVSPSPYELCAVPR
Chain of Sodium-dependent noradrenaline transporter (P23975 whole entry): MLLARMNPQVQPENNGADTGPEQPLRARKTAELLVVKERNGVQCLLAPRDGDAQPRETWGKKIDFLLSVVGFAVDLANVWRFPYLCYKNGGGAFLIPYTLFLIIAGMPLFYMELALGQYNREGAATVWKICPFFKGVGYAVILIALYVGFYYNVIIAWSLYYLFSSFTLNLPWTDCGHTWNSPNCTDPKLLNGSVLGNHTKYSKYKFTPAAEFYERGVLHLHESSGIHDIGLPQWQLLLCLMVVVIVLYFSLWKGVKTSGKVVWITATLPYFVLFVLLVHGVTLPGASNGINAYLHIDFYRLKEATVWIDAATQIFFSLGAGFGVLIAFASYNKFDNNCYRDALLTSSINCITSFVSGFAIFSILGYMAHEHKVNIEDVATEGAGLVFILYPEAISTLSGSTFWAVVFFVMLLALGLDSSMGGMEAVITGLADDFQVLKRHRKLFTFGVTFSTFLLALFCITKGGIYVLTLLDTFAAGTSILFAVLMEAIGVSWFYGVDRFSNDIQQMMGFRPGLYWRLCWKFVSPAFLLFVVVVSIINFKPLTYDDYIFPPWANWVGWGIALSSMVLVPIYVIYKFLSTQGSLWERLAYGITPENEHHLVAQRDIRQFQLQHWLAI
Chain of Delta-type opioid receptor (P41143 whole entry): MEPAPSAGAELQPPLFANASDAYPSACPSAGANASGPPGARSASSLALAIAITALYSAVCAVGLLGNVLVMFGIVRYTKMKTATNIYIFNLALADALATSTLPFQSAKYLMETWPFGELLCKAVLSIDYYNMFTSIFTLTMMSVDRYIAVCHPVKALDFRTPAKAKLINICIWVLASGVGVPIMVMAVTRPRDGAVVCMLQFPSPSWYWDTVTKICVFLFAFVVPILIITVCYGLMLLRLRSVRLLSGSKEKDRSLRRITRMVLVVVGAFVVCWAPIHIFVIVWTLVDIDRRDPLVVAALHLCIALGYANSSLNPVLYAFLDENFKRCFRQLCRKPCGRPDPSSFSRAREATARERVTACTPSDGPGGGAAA

COc1ccc2cc(CC(=O)O)ccc2c1
Not Active: IC50 [1] | IC50 (B2 bradykinin receptor) | IC50 [2] | IC50 [3] | IC50 [4] | IC50 [5] | IC50 (Cytochrome P450 2D6) | Ki (Cytochrome P450 2D6) | IC50 [6] | Ki [6] | IC50 [7] | IC50 (Adenosine receptor A3) | IC50 (Nitric oxide synthase 1)

c1ccc2c(c1)cc1ccc3cccc4ccc2c1c34
Not Active: IC50 [1] | IC50 (B2 bradykinin receptor) | IC50 [2] | IC50 [3] | IC50 [4] | IC50 [5] | IC50 (Cytochrome P450 2D6) | Ki (Cytochrome P450 2D6) | IC50 [6] | Ki [6] | IC50 [7] | IC50 (Adenosine receptor A3) | IC50 (Nitric oxide synthase 1)

CC=CC(=O)N(CC)c1ccccc1C
Not Active: IC50 [1] | IC50 (B2 bradykinin receptor) | IC50 [2] | IC50 [3] | IC50 [4] | IC50 [5] | IC50 (Cytochrome P450 2D6) | Ki (Cytochrome P450 2D6) | IC50 [6] | Ki [6] | IC50 [7] | IC50 (Adenosine receptor A3) | IC50 (Nitric oxide synthase 1)

C=C1C(=O)O[C@@H]2C3O[C@]3(C)CC/C=C(\C)CC[C@@H]12 (stereo partly specified)
Not Active: IC50 [1] | IC50 (B2 bradykinin receptor) | IC50 [2] | IC50 [3] | IC50 [4] | IC50 [5] | IC50 (Cytochrome P450 2D6) | Ki (Cytochrome P450 2D6) | IC50 [6] | Ki [6] | IC50 [7] | IC50 (Adenosine receptor A3) | IC50 (Nitric oxide synthase 1)

CC(/C=C1\SC(=S)N(CC(=O)O)C1=O)=C\c1ccccc1
Not Active: IC50 [1] | IC50 (B2 bradykinin receptor) | IC50 [2] | IC50 [3] | IC50 [4] | IC50 [5] | IC50 (Cytochrome P450 2D6) | Ki (Cytochrome P450 2D6) | IC50 [6] | Ki [6] | IC50 [7] | IC50 (Adenosine receptor A3) | IC50 (Nitric oxide synthase 1)

COc1ccc2c(c1)c(CC(=O)OCC(=O)O)c(C)n2C(=O)c1ccc(Cl)cc1 [ACEMETACIN]
Not Active: IC50 [1] | IC50 (B2 bradykinin receptor) | IC50 [2] | IC50 [3] | IC50 [4] | IC50 [5] | IC50 (Cytochrome P450 2D6) | Ki (Cytochrome P450 2D6) | IC50 [6] | Ki [6] | IC50 [7] | IC50 (Adenosine receptor A3) | IC50 (Nitric oxide synthase 1)

CCCSc1ccc2nc(NC(=O)OC)[nH]c2c1 [ALBENDAZOLE]
Not Active: IC50 [1] | IC50 (B2 bradykinin receptor) | IC50 [2] | IC50 [3] | IC50 [4] | IC50 [5] | IC50 (Cytochrome P450 2D6) | Ki (Cytochrome P450 2D6) | IC50 [6] | Ki [6] | IC50 [7] | IC50 (Adenosine receptor A3) | IC50 (Nitric oxide synthase 1)

Cc1[nH]cnc1CN1CCc2c(c3ccccc3n2C)C1=O [ALOSETRON]
Not Active: IC50 [1] | IC50 (B2 bradykinin receptor) | IC50 [2] | IC50 [3] | IC50 [4] | IC50 [5] | IC50 (Cytochrome P450 2D6) | Ki (Cytochrome P450 2D6) | IC50 [6] | Ki [6] | IC50 [7] | IC50 (Adenosine receptor A3) | IC50 (Nitric oxide synthase 1)

O=c1cc(-c2ccccc2)oc2c1ccc1ccccc12 [ALPHA-NAPHTHOFLAVONE]
Not Active: IC50 [1] | IC50 (B2 bradykinin receptor) | IC50 [2] | IC50 [3] | IC50 [4] | IC50 [5] | IC50 (Cytochrome P450 2D6) | Ki (Cytochrome P450 2D6) | IC50 [6] | Ki [6] | IC50 [7] | IC50 (Adenosine receptor A3) | IC50 (Nitric oxide synthase 1)

O=C1OCCN1/N=C/c1ccc([N+](=O)[O-])o1 [FURAZOLIDONE]
Not Active: IC50 [1] | IC50 (B2 bradykinin receptor) | IC50 [2] | IC50 [3] | IC50 [4] | IC50 [5] | IC50 [6] | Ki [6] | IC50 [7] | IC50 (Adenosine receptor A3) | IC50 (Nitric oxide synthase 1)

NCC(=O)O [GLYCINE]
Not Active: IC50 [1] | IC50 (B2 bradykinin receptor) | IC50 [2] | IC50 [3] | IC50 [4] | IC50 [5] | IC50 [6] | Ki [6] | IC50 [7] | IC50 (Adenosine receptor A3) | IC50 (Nitric oxide synthase 1)

O=P1(NCCCl)OCCCN1CCCl (stereo unspecified) [IFOSFAMIDE]
Not Active: IC50 [1] | IC50 (B2 bradykinin receptor) | IC50 [2] | IC50 [3] | IC50 [4] | IC50 [5] | IC50 [6] | Ki [6] | IC50 [7] | IC50 (Adenosine receptor A3) | IC50 (Nitric oxide synthase 1)

CNC(=O)Oc1ccc2c(c1)[C@]1(C)CCN(C)[C@@H]1N2C [PHYSOSTIGMINE]
Not Active: IC50 [1] | IC50 (B2 bradykinin receptor) | IC50 [2] | IC50 [3] | IC50 [4] | IC50 [5] | IC50 [6] | Ki [6] | IC50 [7] | IC50 (Adenosine receptor A3) | IC50 (Nitric oxide synthase 1)
